Here are results for three compounds from patent publication US20050159345A1 (Boehringer Ingelheim International GmbH, priority 2002, published 2005).

The target in the assay is T1, HCV 2b NS3-NS4A heterodimer protein (UniProt P26661).
T1 construct: fused on or other part: 28 extra N-terminal residues with a hexahistidine tag and an rTEV cleavage site
T1 sequence (P26661 1031-1661): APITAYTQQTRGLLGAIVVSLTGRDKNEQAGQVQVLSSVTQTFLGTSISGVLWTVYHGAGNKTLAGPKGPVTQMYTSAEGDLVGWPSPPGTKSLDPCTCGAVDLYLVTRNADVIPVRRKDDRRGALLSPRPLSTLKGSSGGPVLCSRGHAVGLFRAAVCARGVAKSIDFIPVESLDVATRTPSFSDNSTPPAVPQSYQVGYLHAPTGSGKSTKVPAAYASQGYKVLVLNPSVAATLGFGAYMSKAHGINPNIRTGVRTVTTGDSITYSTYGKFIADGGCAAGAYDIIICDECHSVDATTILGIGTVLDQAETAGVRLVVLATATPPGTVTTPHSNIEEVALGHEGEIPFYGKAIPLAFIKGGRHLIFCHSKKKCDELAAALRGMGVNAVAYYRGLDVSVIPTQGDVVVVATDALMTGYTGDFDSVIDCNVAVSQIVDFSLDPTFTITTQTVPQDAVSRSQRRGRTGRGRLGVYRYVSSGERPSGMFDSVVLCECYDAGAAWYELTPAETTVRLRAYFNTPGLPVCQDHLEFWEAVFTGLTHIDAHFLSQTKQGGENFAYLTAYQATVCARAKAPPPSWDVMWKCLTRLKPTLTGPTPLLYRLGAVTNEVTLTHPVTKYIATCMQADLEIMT
Briefly: In vitro HCV NS3 protease assay (fluorogenic depsipeptide), genotype 2b. Format: biochemical, HCV genotype 2b. The settings on record: read-out: IC50 HCV-2b; HCV 2b NS3-NS4A protease. An excerpt:
The NS3-NS4 protease genes of HCV genotypes 2b and 3a were amplified from RNA isolated from clinical samples of HCV-infected patients obtained from Dr. G. Steinmann (Germany) using RT-PCR. The primers used for the RT-PCR were 5′[…]3′ (SEQ ID No. 6) as the forward and 5′[…]3′ (SEQ ID No.7) as the reverse primer for the NS3-NS4A of HCV genotype 2b and; 5′[…]3′ (SEQ ID No. 8) as the forward and 5′[…]3′ (SEQ ID No. 9) as the reverse primer for HCV genotype 3a. Each primer contained a unique restriction site for subcloning the fragment in the bacterial expression vector pET11a. The cloning into the vector generated a recombinant fusion protein containing an additional N-terminal 28 residues that comprised a hexahistidine tag and a rTEV protease cleavage site. The recombinant plasmids were used to transform the bacterial strain BL21 DE3 pLysS for protein expression and recombinant protein expression was induced by the addition of IPTG. Following expression, the cells were collected by centrifugation at 4° C. and the cell pellet lysed in a buffer containing 50 mM sodium phosphate, 0.5M NaCl, 40% glycerol, 1.5% NP-40, 0.5% Triton X-100 and the soluble protein fraction was passed through a 5ml HiTrap chelating affinity column as described above. A poly(U)-Sepharose purification step can optionally be conducted in order to remove degradation products and contaminants. […]
The fluorescence was monitored using the BMG POLARstar Galaxy 96-well plate reader with an excitation filter of 320 nm, and an emission filter of 405 nm. The level of inhibition (% inhibition) of each well containing test compound was calculated with the following equation (FU=fluorescence unit): [formula]
The calculated % inhibition values were then used to determine IC50, slope factor (n) and maximum inhibition (Imax) by the non-linear regression routine NLIN procedure of SAS using the following equation: [formula] […]

The IC50 is the concentration that inhibits the measured activity by half. As for `COc1ccc2c(O[C@@H]3C[C@H]4C(=O)N[C@]5(C(=O)O)CC5/C=C\CCCCC[C@H](NC(=O)OC5CCCC5)C(=O)N4C3)cc(-c3csc(NC(C)C)n3)nc2c1` (stereo partly drawn) [IV], the IC50 amounted to 260 nM. As to `COc1ccc2c(O[C@@H]3C[C@H]4C(=O)N[C@]5(C(=O)O)CC5/C=C\CCCCC[C@H](NC(=O)OC(C)(C)C)C(=O)N4C3)cc(-c3csc(NC(C)=O)n3)nc2c1` (stereo partly drawn) [III], the IC50 worked out at 510 nM. As to `COc1ccc2c(O[C@@H]3C[C@H]4C(=O)N[C@]5(C(=O)O)CC5/C=C\CCCCC[C@H](NC(=O)OC(C)(C)C)C(=O)N4C3)cc(-c3ccccc3)nc2c1` (stereo partly drawn) [II], the IC50 was found to be 1000 nM.
